Data reported in patent US7531187B2, “Synergistic insecticidal composition containing chloronicotynyle and pyrethroids compounds” (United Phosphorus, Ltd., priority 2004, dated 2009).
Like-named read-outs stand apart in the source and are kept apart here.

Tests used:
[1] = cited from earlier work
domestic fowl = conditions: cited from earlier work
[2] = cited from earlier work; for pH of optimum stability: more stable in acid than in alkaline media
rats [3] = conditions: cited from earlier work
flies = conditions: cited from earlier work
[4] = cited from earlier work; remark: listed apart in the source
rats [5] = conditions: cited from earlier work; remark: listed apart in the source
mice = conditions: cited from earlier work
Japanese quail = conditions: cis/trans ratio of 40:60; cited from earlier work
chicken = conditions: cis/trans ratio of 40:60; cited from earlier work
[6] = test system: cockroaches and other crawling insets; conditions: 100 mg a.i. (as WP)/m^2; cited from earlier work
[7] = test system: Brown plant hoppers and Green plant hoppers; assay: Treated paddy leaf bioassay, larval mortality, Colby synergism (Examples 13-14); assay type: in vivo
Description: In this evaluation, Brown plant hoppers and Green plant hoppers are obtained from laboratory colonies. Paddy leaves are immersed in 1:1 v/v, acetone/water solutions of the test compound, or solution of a combination of the test compounds for a period of about 4 seconds. Following immersion, leaves are allowed to air-dry for 2-3 hours. Plastic bioassay trays containing multiple open-faced wells (4.0×4.0×2.5 cm) are used. Cut portions of a treated leaf, a moistened cotton dental wick and a single third-instar larva are placed into each well. These wells are covered with an adhesive vented clear plastic sheet which is held under constant fluorescent light at about 30° C. for a predetermined period of time. Larval mortality/morbidity is evaluated at 5 days after treatment. All treatments are replicated 3-4 fold in a randomized complete block design with 15-30 larvae per treatment. Using conventional log-probit analysis, the LC50 of each treatment is determined.
Synergism can be calculated by using the Colby's method i.e. the expected (or predicted) response of the combination is calculated by taking the product of the observed response for each individual component of the combination when applied alone divided by 100 and subtracting this value from the sum of observed response for each component when applied alone. Synergism of the combination is then determined by comparing the observed response of the combination to the expected (or predicted) response as calculated from the observed response of each individual component alone. If the observed response of the combination is greater than the expected (or predicted) response, then the combination is said to be synergistic and falls within the definition of synergistic effect. (Colby, S. R., Weeds, 1967(15), p. 20-22)

rats [8] = conditions: cited from earlier work; remark: listed apart in the source
rabbits = conditions: cited from earlier work
[9] = in vivo; cited from earlier work

CC(C)[C@@H](C(=O)O[C@@H](C#N)c1cccc(Oc2ccccc2)c1)c1ccc(Cl)cc1 (racemic) [Fenvalerate, (RS)-α-cyano-3-phenoxybenzyl (RS)-2-(4-chlorophenyl)-3-methylbutyrate]
Solubility in acetone, chloroform, cyclohexanone, ethanol, xylene ([1]; 23° C.): > 1 kg/kg | Solubility in hexane ([1]; 23° C.): 155 g/kg | acute oral LD50 (domestic fowl): > 1600 mg/kg | pH of optimum stability [2]: 4 | Acute percutaneous LD50 (rats [3]; rats): > 5000 mg/kg | duration of control of flies in cattle sheds (flies; 110 mg/aquare meter wall): 60 days | solubility in water ([4]; 20° C.): < 1 µg/mL | acute oral LD50 (rats [5]; rats): 451 mg/kg

CC1(C)C(C=C(Cl)Cl)C1C(=O)OCc1cccc(Oc2ccccc2)c1 (stereo not drawn) [Permethrin, 3-phenoxybenzyl(1RS,3 RS; 1 RS, 3SR)-3-(2,2-dichlorovinyl)-2,2-dimethylcyclopropanecarboxylate]
Solubility in Xylene ([1]; 25° C.): ≥ 1 kg/kg | Solubility in hexane ([1]; 25° C.): > 1 kg/kg | Solubility in methanol ([1]; 25° C.): 258 g/kg | stability to heat ([2]; 50° C.): ≥ 2 years | photochemical stability, in words ([2]; laboratory studies): Some photochemical degradation | pH of optimum stability [2]: 4 | Typical oral LD50 (mice; mice, cis/trans ratio of 40:60): 540 to 2690 mg/kg | Typical oral LD50 (Japanese quail): > 13500 mg/kg | duration of residual control of biting flies in animal housing (flies; 200 mg a.i. (as EC)/square meter wall or 30 mg a.i. (as WP)/m^2 wall): < 60 days | Typical oral LD50 (chicken): > 300 mg/kg | duration of control of cockroaches and other crawling insets [6]: > 120 days | Typical oral LD50 (rats [5]; rats, cis/trans ratio of 40:60): 430 to 4000 mg/kg

CC1(C)C(C=C(Cl)Cl)C1C(=O)OC(C#N)c1cccc(Oc2ccccc2)c1 (racemic) [Cypermethrin, (RS)-α-cyano-3-phenoxybenzyl (1RS, 3RS; IRS, 3SR)-3-(2,2-dichlorovinyl)-2,2-dimethyl cyclopropane carboxylate]
Observed Mortality % ([7]; Table 2, Cypermethrin 80 ppm alone): 52.5% | Observed Mortality % ([7]; Table 2, Cypermethrin 85 ppm alone): 60% | Observed Mortality % ([7]; Table 2, Cypermethrin 90 ppm alone): 70% | Observed Mortality % ([7]; Table 3, Cypermethrin 80 ppm alone): 60.0% | Observed Mortality % ([7]; Table 3, Cypermethrin 85 ppm alone): 65% | Observed Mortality % ([7]; Table 3, Cypermethrin 90 ppm alone): 72.0%

(E)-N′-[(6-chloro-3-pyridyl)methyl]-N-cyano-N-methylacetamidine [Acetamiprid]
solubility in organic solvents, in words ([1]; acetone, methanol, ethanol, dichloromethane, chloroform, acetonitrile and tetrahydrofuron): Soluble | stability in buffered solutions ([2]; pH 4,5,7): Stable | stability in buffered solutions ([2]; pH 9 and 45° C.): Degraded slowly | stability under sunlight ([2]; sunlight): Stable | acute oral LD50 (mice; female mice): 184 mg/kg | acute oral LD50 (mice; male mice): 198 mg/kg | Observed Mortality % ([7]; Table 3, Acetamiprid 24 ppm alone): 47.30% | Observed Mortality % ([7]; Table 3, Acetamiprid 27 ppm alone): 69.25% | Observed Mortality % ([7]; Table 3, Acetamiprid 30 ppm alone): 72.1% | Acute percutaneous LD50 (rats [3]; male and female rats): > 2000 mg/kg | solubility in water ([4]; 25° C.): 4200 µg/mL | inhalation LC50 (4 h) (rats [8]; male and female rats): > 0.29 mg/L | acute oral LD50 (rats [5]; female rats): 146 mg/kg | acute oral LD50 (rats [5]; male rats): 217 mg/kg | irritation to skin and eyes (rabbits; rabbits): Non irritating

O=[N+]([O-])NC1=NCCN1Cc1ccc(Cl)nc1 [Imidacloprid, 1-(6-chloro-3-pyridylmethyl)-N-nitroimidazolidin-2-yldeneamine]
solubility in n.hexane ([1]; 20° C.): < 100 µg/mL | stability to hydrolysis ([2]; pH 5): Stable | Observed Mortality % ([7]; Table 2, Imidacloprid 24 ppm alone, 5 days after treatment): 55.00% | Observed Mortality % ([7]; Table 2, Imidacloprid 27 ppm alone): 69.25% | Observed Mortality % ([7]; Table 2, Imidacloprid 30 ppm alone): 72.10% | skin sensitisation [9]: Not a skin sensitiser | Acute percutaneous LD50 (24 h) (rats [3]; rats, 24 h): > 5000 mg/kg | inhalation LC50 (4 h) (rats [8]; female rats, aerosol): > 5323 mg/m^3 air | irritation to skin and eyes (rabbits; rabbit, in vivo): Non irritating
